Source: US4622430A (priority 1982, dated 1986)
Read-outs that look alike come from different tables or passages of the source.

Columns and labels:
[1] = tested on: reserpine-induced catalepsy; experiment: Antagonism of reserpine-induced catalepsy in the mouse; format: in vivo, Male CD-1 mice; settings: 0.75 h, read-out: ED50 (dose causing a reduction of the catalepsy score to 50% of the control group score), oral, reserpine 5 mg/kg i.p. 4 h before, scored 45 min after compound
[2] = Irwin dose-range study/acute toxicity in the mouse; design: species or system Male CD-1 mice; settings: in vivo; for selectivity ratio: LD50 acute oral toxicity / ED50 reserpine catalepsy, read-out: Therapeutic index (LD50/ED50); for LD50 at 168 h: oral, 7 days observation, method of Horn
Description: Irwin Dose-Range Study/Acute Toxicity in the Mouse
The animals were also observed daily for seven days post-dose and any mortalities noted. LD50 values were estimated using the method of Horn (Biometrics, 12, 311 (1956)).

[3] = tested on: oxotremorine-induced tremor and salivation; experiment: Anti-oxotremorine test in the mouse; settings: 0-3 scale; for Mean tremor score (± s.e.): vehicle 2,6-2,9; for Mean salivation score (± s.e.): vehicle 2,7-2,9
[4] = tested on: CVS strain of rabies virus; format: in vivo, in Swiss-Webster mice
[5] = 10 mg/kg oral, 10 min post-oxotremorine
[6] = 100 mg/kg oral, 30 min post-oxotremorine

Compound: NC1C2C3CC4C5CC(C1C53)C42 (stereo not shown) [Compound 11, 4-amino-(D3)-trishomocubane]
- ED50 [1]: 139 mg/kg
- selectivity ratio [2]: 7.2
- LD50 at 168 h [2]: 1000 mg/kg

Compound: CC12C3CC4C5CC(C(C53)C1NCc1ccccc1)C42 (stereo not shown) [Compound 16, 4-Benzylamino-3-methyl-(D3)-trishomocubane]
- ED50 [1]: 69.1 mg/kg
- selectivity ratio [2]: > 14.5
- LD50 at 168 h [2]: > 1000 mg/kg
- Mean tremor score (± s.e.) [3, 5]: 1,4 ± 0,2
- Mean salivation score (± s.e.) [3, 5]: 1,3 ± 0,2

Compound: CC12C3CC4C5CC(C(C53)C1NCCc1ccccc1)C42 (stereo not drawn) [Compound 17, 4-(β-phenyl)ethylamino-3-methyl-(D3)-trishomocubane]
- Mean tremor score (± s.e.) [3, 6]: 1,4 ± 0,2
- Mean salivation score (± s.e.) [3, 6]: 1,0 ± 0,3

Compound: NC1C2C3CC4C5CC(C42)C1(c1ccccc1)C53 (stereo not shown) [Compound 19, 4-amino-3-phenyl-(D3)-trishomocubane]
- ED50 [1]: 32.2 mg/kg
- Survival parameter (sum of days survived by six mice, up to 14 days each) ([4]; i.p. 10 mg/kg, 24 hours post inoculation, control 53 (compound 14), 59 (compound 19)): 66
- Survival parameter (sum of days survived by six mice, up to 14 days each) ([4]; i.p. 10 mg/kg, 96 hours post inoculation, control 52 (compound 14), 61 (compound 19)): 77
- Survival parameter (sum of days survived by six mice, up to 14 days each) ([4]; i.p. 21,5 mg/kg, 24 hours post inoculation, control 53 (compound 14), 59 (compound 19)): 65
- Survival parameter (sum of days survived by six mice, up to 14 days each) ([4]; i.p. 21,5 mg/kg, 96 hours post inoculation, control 52 (compound 14), 61 (compound 19)): 71
- Survival parameter (sum of days survived by six mice, up to 14 days each) ([4]; i.p. 46,4 mg/kg, 24 hours post inoculation, control 53 (compound 14), 59 (compound 19)): 66
- Survival parameter (sum of days survived by six mice, up to 14 days each) ([4]; i.p. 46,4 mg/kg, 96 hours post inoculation, control 52 (compound 14), 61 (compound 19)): 68
- selectivity ratio [2]: 25.6
- LD50 at 168 h [2]: 825 mg/kg
- Mean salivation score (± s.e.) ([3]; 30 mg/kg oral, 20 min post-oxotremorine): 1,0 ± 0,2

Compound: CNC1C2C3CC4C5CC(C42)C1(C)C53 (stereo not shown) [Compound 23, 3-methyl-4-methylamino-(D3)-trishomocubane]
- Mean salivation score (± s.e.) ([3]; 30 mg/kg oral, 30 min post-oxotremorine): 0,8 ± 0,2
- Mean tremor score (± s.e.) ([3]; 100 mg/kg oral, 10 min post-oxotremorine): 1,2 ± 0,2
